Some test systems named below: Staphylococcus hyicus; Aeromonas veronii CL0901; Acinetobacter baumannii; Escherichia coli O157:H7; Vibrio cholerae O1 Inaba; Escherichia coli C600.
Assay in all cases: ≥ marks a high value that may be exact or a test limit, other limits are often not marked, values filed in µg/mL are converted to µM
Experiment [1] deals with Mannheimia haemolytica 82-25.
Experiment [2] has as its system Pseudomonas aeruginosa CICC 21630.
Experiment [3] deals with Escherichia coli CVCC 195.
In experiment [4] the test system is Salmonella enterica subsp. enterica serovar Typhimurium ATCC 14028.
The subject of experiment [5] is Escherichia coli CVCC O157.
The test system of experiment [6] is Salmonella enterica subsp. enterica serovar Enteritidis CVCC 3377.
For experiment [7], the system named is Salmonella enterica subsp. enterica serovar Pullorum CVCC 1809.
For experiment [8], the system named is Aeromonas veronii X-1-06909.
The test system of experiment [9] is Staphylococcus aureus ATCC 43300.
Experiment [10] concerns Aeromonas veronii ATCC 35624.
Experiment [11] relates to Escherichia coli CVCC 1515.
In experiment [12] the test system is Staphylococcus hyicus NCTC 10350.
Experiment [13] deals with Escherichia coli CVCC 25922.
Experiment [14] concerns Salmonella enterica subsp. enterica serovar Pullorum CVCC 533.
For experiment [15], the system named is Staphylococcus aureus ATCC 546.
The test system of experiment [16] is Salmonella enterica subsp. enterica serovar Pullorum CVCC 1789.
Experiment [17] concerns Staphylococcus aureus ATCC 25923.
The test system of experiment [18] is Candida albicans CMCC 98001.
For experiment [19], the system named is Enterococcus faecium ATCC 700221.
The subject of experiment [20] is Acinetobacter baumannii ATCC BAA-747.
The subject of experiment [21] is Salmonella enterica ATCC 6539.
The subject of experiment [22] is Pseudomonas aeruginosa ATCC 27853.
The subject of experiment [23] is Escherichia coli ATCC 25922.
Experiment [24] deals with Klebsiella pneumoniae ATCC 700603.
Experiment [25] deals with Listeria monocytogenes 10403s.
Experiment [26] concerns Salmonella enterica subsp. enterica serovar Typhimurium ATCC 13311.
In experiment [27] the test system is Shigella sonnei ATCC 11060.
In experiment [28] the test system is Staphylococcus epidermidis ATCC 12228.
In experiment [29] the test system is Bacillus cereus ATCC 11778.
The test system of experiment [30] is Enterococcus faecalis ATCC 29212.
Experiment [31] relates to Pseudomonas aeruginosa PAO1.
Experiment [32] concerns Staphylococcus aureus 209P.
Experiment [33] deals with Staphylococcus aureus MW2.
Experiment [34] has as its system Klebsiella pneumoniae WGLW2.
The subject of experiment [35] is Acinetobacter baumannii ATCC 7978.
Experiment [36] deals with Klebsiella aerogenes ATCC 13048.
For experiment [37], the system named is Staphylococcus aureus ATCC 29231.

Molecules are shown by their SMILES. Converted amounts (≈) assume the structure as drawn.

As a reminder, the MIC is the smallest concentration in the dilution series that meets the test's criterion for growth inhibition. A higher MIC goes with a need for much substance. The molecule `NCCCC[C@H](NC(=O)[C@H](CC(=O)O)NC(=O)[C@H](CC(=O)O)NC(=O)[C@H](CC(=O)O)NC(=O)[C@@H](N)CC(=O)O)C(=O)O` [DDDDK] registered an MIC in [1] of no less than 90 µM.

For `CC(C)[C@@H]1NC(=O)CNC(=O)[C@H](CC(N)=O)NC(=O)[C@H](CCCN=C(N)N)NC(=O)[C@H](Cc2ccc(O)cc2)NC(=O)[C@H](C(C)C)NC(=O)[C@@H](NC(=O)[C@@H](NC(=O)[C@H](CC(N)=O)NC(=O)[C@H](Cc2c[nH]c3ccccc23)NC(=O)[C@H](C)NC(=O)[C@H](Cc2ccccc2)NC(=O)CN)C(C)C)CSSC[C@@H](C(=O)N[C@@H](Cc2cnc[nH]2)C(=O)N[C@@H](CCCN=C(N)N)C(=O)N2CCC[C@H]2C(=O)N[C@@H](C)C(=O)N[C@@H](CC(N)=O)C(N)=O)NC(=O)[C@H](C(C)C)NC(=O)[C@H](CCCN=C(N)N)NC1=O` [GFAWNVCVYRNGVRVCHRPAN], the MIC came to 26.5 µM (≈ 63.9 µg/mL) in [2]; 3.31 µM (≈ 7.99 µg/mL) in [3]; 6.62 µM (≈ 16 µg/mL) in experiment [4]; 3.31 µM (≈ 7.99 µg/mL) in [5]; 0.827 µM (≈ 2 µg/mL) in experiment [6]; 26.5 µM (≈ 63.9 µg/mL) with Staphylococcus hyicus. The MIC in experiment [7] was 3.31 µM (≈ 7.99 µg/mL); against Aeromonas veronii CL0901, 26.5 µM (≈ 63.9 µg/mL); in [8] it was 26.5 µM (≈ 63.9 µg/mL); in experiment [9], greater than 26.5 µM; in experiment [10] it was 26.5 µM (≈ 63.9 µg/mL); in experiment [11], 1.65 µM (≈ 4 µg/mL). The MIC in experiment [12] was no less than 52.9 µM; in experiment [13] it was 3.31 µM (≈ 7.99 µg/mL); in [14] it was 13.2 µM (≈ 32 µg/mL); in experiment [15], 26.5 µM (≈ 63.9 µg/mL); in [16], 6.62 µM (≈ 16 µg/mL); in experiment [17], greater than 26.5 µM. The molecule also gave an MIC in experiment [18] of no less than 52.9 µM.

`NCC(=O)NCC(=O)N[C@@H](Cc1cnc[nH]1)C(=O)O` [GGH]: the MIC in experiment [19] was no less than 476 µM; in experiment [20], no less than 476 µM; in [21] it was no less than 476 µM; in [22], greater than 476 µM; in experiment [9] it was greater than 476 µM; in [23], greater than 476 µM. This molecule also showed an MIC in [24] greater than 476 µM.

Regarding `CC[C@H](C)[C@H](NC(=O)[C@H](CCCN=C(N)N)NC(=O)[C@H](CCCCN)NC(=O)[C@H](C)NC(=O)[C@@H](NC(=O)[C@@H](N)CCCCN)[C@@H](C)CC)C(=O)N[C@@H](Cc1c[nH]c2ccccc12)C(=O)N[C@@H](CCCCN)C(=O)N[C@H](C(=O)N[C@@H](CC(C)C)C(=O)N[C@@H](CCCN=C(N)N)C(=O)N[C@@H](CCCN=C(N)N)C(=O)N[C@@H](CCCN=C(N)N)C(=O)N[C@@H](CC(C)C)C(=O)N[C@@H](Cc1ccccc1)C(=O)N[C@@H](CCCN=C(N)N)C(N)=O)[C@@H](C)CC` [KIAKRIWKILRRRLFR], the MIC was 3.63 µM (≈ 7.81 µg/mL) in the experiment on Acinetobacter baumannii; 1.82 µM (≈ 3.91 µg/mL) in experiment [25]; 0.905 µM (≈ 1.95 µg/mL) in [26]; 1.82 µM (≈ 3.91 µg/mL) in experiment [27]; 3.63 µM (≈ 7.81 µg/mL) in experiment [22]; 1.82 µM (≈ 3.91 µg/mL) in experiment [28]. The minimum inhibitory concentration (MIC) in experiment [23] is 3.63 µM (≈ 7.81 µg/mL); in experiment [29], 1.82 µM (≈ 3.91 µg/mL); with Escherichia coli O157:H7, 29 µM (≈ 62.5 µg/mL); in [30], 7.26 µM (≈ 15.6 µg/mL); in [17], 3.63 µM (≈ 7.81 µg/mL); against Vibrio cholerae O1 Inaba, 1.82 µM (≈ 3.91 µg/mL).

In the case of `CC[C@H](C)[C@@H]1NC(=O)CNC(=O)[C@H](CCCN=C(N)N)NC(=O)[C@H](Cc2ccc(O)cc2)NC(=O)[C@@H]2CSSC[C@H](NC1=O)C(=O)N[C@@H](Cc1ccc(O)cc1)C(=O)N[C@@H](CCCN=C(N)N)C(=O)N[C@@H](CCCN=C(N)N)C(=O)N[C@H](C(=O)N[C@@H](CCCN=C(N)N)C(=O)O)CSSC[C@H](NC(=O)[C@H](Cc1c[nH]c3ccccc13)NC(=O)[C@@H](N)CCCCN)C(=O)N[C@@H](Cc1ccccc1)C(=O)N[C@@H](CCCN=C(N)N)C(=O)N[C@@H](CO)C(=O)N2` [KWCFRSCYRGICYRRCR], the MIC in experiment [31] came to 12.5 µM (≈ 28.2 µg/mL); with Escherichia coli C600, 1.56 µM (≈ 3.51 µg/mL); in experiment [32], 6.25 µM (≈ 14.1 µg/mL).

Take `CC[C@H](C)[C@H](NC(=O)[C@H](CCCCN)NC(=O)[C@H](Cc1c[nH]c2ccccc12)NC(=O)[C@@H](N)CC(C)C)C(=O)NCC(=O)N[C@@H](CCCCN)C(=O)N[C@@H](CCCCN)C(=O)N[C@H](C(=O)N[C@@H](Cc1c[nH]c2ccccc12)C(=O)N[C@@H](CCCN=C(N)N)C(=O)N[C@H](C(=O)NCC(=O)N[C@@H](Cc1c[nH]c2ccccc12)C(=O)N[C@@H](CC(N)=O)C(=O)N[C@@H](Cc1c[nH]c2ccccc12)C(=O)N[C@@H](CCCN=C(N)N)C(=O)O)C(C)C)[C@@H](C)CC` [LWKIGKKIWRVGWNWR]: the MIC in [33] is 30.1 µM (≈ 64 µg/mL); in experiment [34], 30.1 µM (≈ 64 µg/mL); in [35], 7.25 µM (≈ 15.4 µg/mL); in experiment [36], no less than 60.2 µM; in [37] it was 30.1 µM (≈ 64 µg/mL).
